# Measurements as given in ChEMBL document CHEMBL4402545, “Subtype Selective γ-Aminobutyric Acid Type A Receptor (GABAAR) Modulators Acting at the Benzodiazepine Binding Site: An Update” (J Med Chem, 2020).
# Legend:
# Homo sapiens [1] = assay: In vivo receptor occupancy GABAA receptor in human assessed as neocortical regions concentration causing reduction in [11C]flumazenil receptor labeling at 1.5 mg after 5 hrs by PET method relative to control; assay type: functional
# Homo sapiens [2] = assay: In vivo receptor occupancy GABAA receptor in human assessed as neocortical regions concentration causing reduction in [11C]flumazenil receptor labeling at 1.5 mg after 24 hrs by PET method relative to control; assay type: functional
# [3] = molecular target: T1, Gamma-aminobutyric acid receptor subunit alpha-2 (Homo sapiens) (UniProt P47869); assay: Binding affinity to GABA-A alpha2 (unknown origin) assessed as increase in induced current relative to control
# T1 sequence (whole entry): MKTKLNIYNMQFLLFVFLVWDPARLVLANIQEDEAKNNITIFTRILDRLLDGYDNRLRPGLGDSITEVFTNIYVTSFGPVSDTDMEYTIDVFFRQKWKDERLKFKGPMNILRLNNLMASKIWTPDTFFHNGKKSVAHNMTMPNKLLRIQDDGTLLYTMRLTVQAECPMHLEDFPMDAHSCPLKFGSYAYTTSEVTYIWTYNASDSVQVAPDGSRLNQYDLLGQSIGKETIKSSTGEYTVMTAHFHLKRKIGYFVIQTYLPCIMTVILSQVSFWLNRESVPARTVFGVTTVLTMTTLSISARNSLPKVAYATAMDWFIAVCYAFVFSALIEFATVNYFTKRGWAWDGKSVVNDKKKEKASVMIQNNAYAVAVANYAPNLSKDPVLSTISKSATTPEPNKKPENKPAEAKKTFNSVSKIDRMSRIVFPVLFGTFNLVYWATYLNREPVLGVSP
# [4] = molecular target: T2, Gamma-aminobutyric acid receptor subunit alpha-3 (Homo sapiens, UniProt P34903); assay: Binding affinity to GABA-A alpha3 (unknown origin)
# T2 sequence (P34903 whole entry): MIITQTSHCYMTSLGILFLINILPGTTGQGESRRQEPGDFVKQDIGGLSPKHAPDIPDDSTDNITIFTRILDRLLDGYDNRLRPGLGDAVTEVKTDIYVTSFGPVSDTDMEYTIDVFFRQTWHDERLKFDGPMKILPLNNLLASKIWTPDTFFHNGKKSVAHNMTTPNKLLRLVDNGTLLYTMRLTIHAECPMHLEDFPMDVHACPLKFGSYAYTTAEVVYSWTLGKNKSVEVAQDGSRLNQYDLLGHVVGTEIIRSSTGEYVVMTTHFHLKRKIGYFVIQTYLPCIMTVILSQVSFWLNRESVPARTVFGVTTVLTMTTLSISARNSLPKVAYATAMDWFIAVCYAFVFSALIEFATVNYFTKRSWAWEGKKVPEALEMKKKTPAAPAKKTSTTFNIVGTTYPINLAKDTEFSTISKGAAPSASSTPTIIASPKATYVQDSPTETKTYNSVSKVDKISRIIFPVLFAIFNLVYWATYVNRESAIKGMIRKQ
# [5] = molecular target: T3, Gamma-aminobutyric acid receptor subunit alpha-3 (Homo sapiens) (UniProt P34903); assay: Binding affinity to GABA-A alpha3 (unknown origin) assessed as increase in induced current relative to control
# T3 sequence (whole entry): T2 sequence (P34903 whole entry)
# [6] = molecular target: T4, Gamma-aminobutyric acid receptor subunit alpha-5 (Homo sapiens) (UniProt P31644); assay: Binding affinity to GABA-A alpha5 (unknown origin) assessed as increase in induced current relative to control
# T4 sequence (whole entry): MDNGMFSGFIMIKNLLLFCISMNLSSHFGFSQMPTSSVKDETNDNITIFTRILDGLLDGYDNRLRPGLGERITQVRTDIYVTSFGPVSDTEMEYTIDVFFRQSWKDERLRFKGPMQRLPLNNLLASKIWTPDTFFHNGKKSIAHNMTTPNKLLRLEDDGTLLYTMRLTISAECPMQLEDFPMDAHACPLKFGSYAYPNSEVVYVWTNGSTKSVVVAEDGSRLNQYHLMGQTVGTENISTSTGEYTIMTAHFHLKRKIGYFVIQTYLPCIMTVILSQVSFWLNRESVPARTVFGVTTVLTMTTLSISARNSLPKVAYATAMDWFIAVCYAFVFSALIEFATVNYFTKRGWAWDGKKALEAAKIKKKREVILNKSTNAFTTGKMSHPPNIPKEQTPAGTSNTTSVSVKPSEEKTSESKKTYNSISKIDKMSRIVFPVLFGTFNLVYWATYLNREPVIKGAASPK
# [7] = molecular target: T5, Gamma-aminobutyric acid receptor subunit alpha-5 (Homo sapiens, UniProt P31644); assay: Binding affinity to GABA-A alpha5 (unknown origin)
# T5 sequence (P31644 whole entry): T4 sequence (whole entry)
# [8] = molecular target: T6, Gamma-aminobutyric acid receptor subunit alpha-1 (Homo sapiens, UniProt P14867); assay: Binding affinity to GABA-A alpha1 (unknown origin)
# T6 sequence (P14867 whole entry): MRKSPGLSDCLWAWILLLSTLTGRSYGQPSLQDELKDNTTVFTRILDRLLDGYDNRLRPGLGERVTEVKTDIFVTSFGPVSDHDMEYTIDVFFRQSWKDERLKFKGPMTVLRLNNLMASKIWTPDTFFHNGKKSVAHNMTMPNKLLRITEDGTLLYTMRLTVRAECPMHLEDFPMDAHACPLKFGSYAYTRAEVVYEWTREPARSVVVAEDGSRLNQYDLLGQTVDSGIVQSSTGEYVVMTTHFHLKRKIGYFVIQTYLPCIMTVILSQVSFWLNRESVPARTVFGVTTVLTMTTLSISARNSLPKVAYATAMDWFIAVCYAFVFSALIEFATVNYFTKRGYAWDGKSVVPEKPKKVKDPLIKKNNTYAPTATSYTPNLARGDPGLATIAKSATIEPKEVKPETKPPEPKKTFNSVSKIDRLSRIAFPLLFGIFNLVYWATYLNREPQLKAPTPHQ
# Rattus norvegicus [9] = assay: In vivo receptor occupancy at GABAA receptor in po dosed Sprague-Dawley rat assessed as brain concentration causing 50% reduction in [3H]-flumazenil receptor labeling after 0.75 hrs by scintillation counting method; assay type: functional
# [10] = molecular target: T7, Gamma-aminobutyric acid receptor subunit alpha-2 (Homo sapiens, UniProt P47869); assay: Binding affinity to GABA-A alpha2 (unknown origin)
# T7 sequence (P47869 whole entry): T1 sequence (whole entry)
# [11] = molecular target: T8, Gamma-aminobutyric acid receptor subunit alpha-1 (Homo sapiens) (UniProt P14867); assay: Binding affinity to GABA-A alpha1 (unknown origin) assessed as increase in induced current relative to control
# T8 sequence (whole entry): T6 sequence (P14867 whole entry)
# Rattus norvegicus [12] = assay: In vivo receptor occupancy at GABAA receptor in po dosed Sprague-Dawley rat assessed as plasma concentration causing 50% reduction in [3H]-flumazenil receptor labeling by scintillation counting method; assay type: functional
# Homo sapiens [13] = assay: In vivo receptor occupancy at GABAA receptor in po dosed human assessed as plasma concentration causing 50% reduction in [11C]-flumazenil receptor labeling; assay type: functional
# Homo sapiens [14] = species on record: Homo sapiens; assay: Positive allosteric modulation of recombinant human GABAA alpha2beta3gamma2 expressed in Ltk cells assessed as […] current response by whole cell patch clamp method relative to chlordiazepoxide; assay type: cell-based
# [15] = molecular target: GABA-A receptor; alpha-5/beta-3/gamma-2 (Homo sapiens) (UniProt P18507+P28472+P31644); assay: Positive allosteric modulation of recombinant human GABAA alpha5beta3gamma2 expressed in Ltk cells assessed as […] current response by whole cell patch clamp method relative to chlordiazepoxide; assay type: cell-based
# [16] = molecular target: T9, GABA-A receptor; alpha-1/beta-3/gamma-2 (Homo sapiens, UniProt P14867+P18507+P28472); assay: Displacement of [3H]-flumazenil from human GABAA alpha1beta3gamma2 expressed in Ltk cells; assay type: cell-based
# T9 sequence (P14867 whole entry): T6 sequence (P14867 whole entry)
# T9 sequence (P18507 whole entry): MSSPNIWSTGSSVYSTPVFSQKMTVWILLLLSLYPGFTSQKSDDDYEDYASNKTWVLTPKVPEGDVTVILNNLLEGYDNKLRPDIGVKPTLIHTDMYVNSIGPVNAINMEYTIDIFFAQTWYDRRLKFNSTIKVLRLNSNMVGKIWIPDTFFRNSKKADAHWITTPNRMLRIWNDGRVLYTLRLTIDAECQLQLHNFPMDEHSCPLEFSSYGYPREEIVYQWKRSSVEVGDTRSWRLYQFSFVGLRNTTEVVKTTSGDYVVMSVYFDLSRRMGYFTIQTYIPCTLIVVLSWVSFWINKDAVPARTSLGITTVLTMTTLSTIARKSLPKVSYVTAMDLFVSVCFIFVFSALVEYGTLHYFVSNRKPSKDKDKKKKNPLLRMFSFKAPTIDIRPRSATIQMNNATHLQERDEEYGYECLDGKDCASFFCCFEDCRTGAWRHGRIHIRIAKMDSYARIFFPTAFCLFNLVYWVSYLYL
# T9 sequence (P28472 whole entry): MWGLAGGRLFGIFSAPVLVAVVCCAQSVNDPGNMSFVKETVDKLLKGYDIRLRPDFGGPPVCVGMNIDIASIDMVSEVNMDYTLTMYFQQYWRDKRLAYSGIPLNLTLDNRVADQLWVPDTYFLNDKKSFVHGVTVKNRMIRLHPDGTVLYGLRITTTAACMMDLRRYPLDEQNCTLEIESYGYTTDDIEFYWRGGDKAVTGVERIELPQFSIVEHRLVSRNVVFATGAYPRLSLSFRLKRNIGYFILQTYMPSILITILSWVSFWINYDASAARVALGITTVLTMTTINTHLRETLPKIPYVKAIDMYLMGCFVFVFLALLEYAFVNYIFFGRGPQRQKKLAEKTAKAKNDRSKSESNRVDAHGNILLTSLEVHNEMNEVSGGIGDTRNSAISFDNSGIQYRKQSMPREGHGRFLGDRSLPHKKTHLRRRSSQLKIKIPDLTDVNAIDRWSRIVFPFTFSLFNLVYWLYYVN
# [17] = Displacement of [3H]-flumazenil from human GABAA alpha2beta3gamma2 expressed in Ltk cells; assay type: cell-based
# Rattus norvegicus [18] = assay: In vivo receptor occupancy at GABAA receptor in po dosed Sprague-Dawley rat assessed as brain concentration causing 50% reduction in [3H]-flumazenil receptor labeling by scintillation counting method; assay type: functional
# [19] = molecular target: T10, GABA-A receptor; alpha-3/beta-3/gamma-2 (Homo sapiens, UniProt P18507+P28472+P34903); assay: Displacement of [3H]-flumazenil from human GABAA alpha3beta3gamma2 expressed in Ltk cells; assay type: cell-based
# T10 sequence (P18507 whole entry): T9 sequence (P18507 whole entry)
# T10 sequence (P28472 whole entry): T9 sequence (P28472 whole entry)
# T10 sequence (P34903 whole entry): T2 sequence (P34903 whole entry)
# [20] = molecular target: T11, GABA-A receptor; alpha-5/beta-3/gamma-2 (Homo sapiens, UniProt P18507+P28472+P31644); assay: Displacement of [3H]-flumazenil from human GABAA alpha5beta3gamma2 expressed in Ltk cells; assay type: cell-based
# T11 sequence (P18507 whole entry): T9 sequence (P18507 whole entry)
# T11 sequence (P28472 whole entry): T9 sequence (P28472 whole entry)
# T11 sequence (P31644 whole entry): T4 sequence (whole entry)
# [21] = molecular target: GABA-A receptor; alpha-1/beta-3/gamma-2 (Homo sapiens) (UniProt P14867+P18507+P28472); assay: Positive allosteric modulation of recombinant human GABAA alpha1beta3gamma2 expressed in Ltk cells assessed as […] current response by whole cell patch clamp method relative to chlordiazepoxide; assay type: cell-based
# [22] = molecular target: GABA-A receptor; alpha-3/beta-3/gamma-2 (Homo sapiens) (UniProt P18507+P28472+P34903); assay: Positive allosteric modulation of recombinant human GABAA alpha3beta3gamma2 expressed in Ltk cells assessed as […] current response by whole cell patch clamp method relative to chlordiazepoxide; assay type: cell-based
smiles,measurement,setting,value
CC(C)(O)c1cnn2c(-c3ccc(F)c(-c4c(F)cccc4C#N)c3)cnc2n1,Occ,Homo sapiens [1],52%
same,Occ,Homo sapiens [2],46%
same,fold change (FC),[3],0.38
same,Ki,[4],1.8 nM
same,fold change (FC),[5],0.5
same,fold change (FC),[6],0.37
same,Ki,[7],1.1 nM
same,Ki,[8],0.73 nM
same,Occ50,Rattus norvegicus [9],0.09 mg/kg
same,Ki,[10],2 nM
same,fold change (FC),[11],0.03
same,Occ50,Rattus norvegicus [12],19 ng/mL
same,Occ50,Homo sapiens [13],5.8 ng/mL
Cn1ncnc1COc1nn2c(-c3c(F)cccc3F)nnc2cc1C1CCC1,fold change (FC),Homo sapiens [14],0.23
same,fold change (FC),[15],0.18
same,Ki,[16],0.22 nM
same,Ki,[17],0.4 nM
same,Occ50,Rattus norvegicus [18],2.2 mg/kg
same,Ki,[19],0.21 nM
same,Ki,[20],0.23 nM
same,fold change (FC),[21],0.18
same,fold change (FC),[22],0.45
